Tests used:
DMS 114 = experiment: in vitro small cell lung cancer cell growth inhibition (NCI screen); assay type: cell-based, human; details: for GI50: Homo sapiens, read-out: cytotoxicity log GI50 (converted)
DMS 273 = experiment: as above; assay type: cell-based; details: Homo sapiens, read-out: cytotoxicity log GI50 (converted)

CC(=O)NC1=C(NCC(C)C)C(=O)c2ccccc2C1=O [Compound 31]
GI50 (DMS 114): 14.8 µM
GI50 (DMS 273): 14.5 µM

Cc1nc2c(n1CC(C)C)C(=O)c1ccccc1C2=O [Compound 7]
GI50 (DMS 273): 26.9 µM

O=C(Cc1ccccc1F)NC1=C(Cl)C(=O)c2ccccc2C1=O [Compound 2i, 2-(2-Fluorophenyl)acetamido-3-chloro-1,4-naphthoguinone]
GI50 (DMS 114): 0.174 µM

Cc1nc2c(n1CCO)C(=O)c1ccccc1C2=O [Compound 16]
GI50 (DMS 273): 20 µM

CCC(C)n1c(C)nc2c1C(=O)c1ccccc1C2=O (centres unmarked) [Compound 6]
GI50 (DMS 273): 33.9 µM

CCC(C)Cn1c(C)nc2c1C(=O)c1ccccc1C2=O (centres unmarked) [Compound 13]
GI50 (DMS 273): 9.77 µM

CC(=O)NC1=C(NCCN(C)C)C(=O)c2ccccc2C1=O [Compound 39]
GI50 (DMS 273): 11.7 µM

NC1=C(NC(=O)Cc2ccc(F)cc2)C(=O)c2ccccc2C1=O [Compound 3c]
GI50 (DMS 273): 33.9 µM

COc1ccc(Cn2c(C)nc3c2C(=O)c2ccccc2C3=O)cc1 [Compound 18]
GI50 (DMS 273): 3.31 µM

Cc1ccc(Cn2c(C)nc3c2C(=O)c2ccccc2C3=O)cc1 [Compound 17]
GI50 (DMS 273): 1.07 µM

Cc1nc2c(n1CCC(C)C)C(=O)c1ccccc1C2=O [Compound 11]
GI50 (DMS 273): 11 µM

CCC(C)(C)n1c(C)nc2c1C(=O)c1ccccc1C2=O [Compound 12]
GI50 (DMS 273): 11.7 µM

CCCC(C)n1c(C)nc2c1C(=O)c1ccccc1C2=O (centres unmarked) [Compound 9]
GI50 (DMS 273): 7.24 µM

CCC(C)NC1=C(NC(C)=O)C(=O)c2ccccc2C1=O (centres unmarked) [Compound 30]
GI50 (DMS 114): 28.2 µM
GI50 (DMS 273): 27.5 µM

Cc1nc2c(n1C(C)(C)C)C(=O)c1ccccc1C2=O [Compound 8]
GI50 (DMS 273): 52.5 µM

CCn1c(Cc2ccc(F)cc2)nc2c1C(=O)c1ccccc1C2=O [Compound 66]
GI50 (DMS 273): 9.77 µM

CCC(CC)n1c(C)nc2c1C(=O)c1ccccc1C2=O [Compound 10]
GI50 (DMS 273): 22.9 µM

O=C1c2ccccc2C(=O)c2[nH]c(Cc3ccccc3F)nc21 [Compound 4b]
GI50 (DMS 114): 33.9 µM
GI50 (DMS 273): 34.7 µM

CCn1c(C)nc2c1C(=O)c1ccccc1C2=O [Compound 5, 1-ethyl-2-methylnaphth-[2,3-d]imidazole-4,9-dione]
cytotoxicity log GI50 (DMS 114): -6.56 M
GI50 (DMS 114): 0.275 µM
GI50 (DMS 273): 1.66 µM

Cc1nc2c(n1Cc1ccc(F)cc1)C(=O)c1ccccc1C2=O [Compound 19]
GI50 (DMS 273): 6.46 µM

Cc1nc2c(n1Cc1ccc(Cl)cc1)C(=O)c1ccccc1C2=O [Compound 20]
GI50 (DMS 273): 2.63 µM

Reference: US5789431A, “Naphthoquinone antitumor compound and method” (The University of North Carolina at Chapel Hill, priority 1996, dated 1998)
